Experimental data published in patent US20240277698A1, “METHODS OF USING ALDOSTERONE SYNTHASE INHIBITORS” (CINCOR PHARMA, INC., priority 2021, published 2024).

Key:
[1] = MAD study: predose plasma adrenocorticotropic hormone (ACTH); type: in vivo, human
Excerpt: Table 10 presents mean predose plasma ACTH concentrations over time and change and percent change from Day 1 to Day 10 predose concentrations by treatment group for the PD Population.

[2] = MAD study: safety (adverse events, vital signs, ECG, laboratory values, body weight); type: in vivo, human; conditions: for tolerability: once daily for 10 days
Protocol: Safety was assessed throughout the study based on AEs, physical examinations, weight measurements, electrocardiograms (ECGs), orthostatic vital sign assessments, and clinical laboratory evaluations. In order to thoroughly assess any potential effect of (R)-compound 1 on QT interval, continuous ECG recordings were also performed, starting approximately 1 hour before dosing, and continuing for approximately 24 hours after dosing on Days 1 and 10.
Safety is assessed throughout the study based on AEs, physical examinations, weight measurements, ECGs, vital sign (including orthostatic) assessments, and clinical laboratory evaluations. In order to thoroughly assess any potential effect of (R)-compound 1 on QT interval, continuous ECG recordings were also performed starting approximately 1 hour before dosing and continuing for approximately 24 hours after dosing on Days 1 and 10. If cardiodynamic analyses are undertaken, 12-lead ECGs will be extracted at predefined time points paired with PK samples.

[3] = 0.5 mg, normal salt diet, N = 9
[4] = 1.5 mg, normal salt diet, N = 9
[5] = 2.5 mg, normal salt diet, N = 6
[6] = all dose levels including placebo, treatment period
[7] = all subjects receiving (R)-compound 1

## CCC(=O)N[C@@H]1CCCc2c(-c3ccc4c(c3)CCC(=O)N4C)cncc21 [(R)-Compound 1, (R)—N-(4-(1-methyl-2-oxo-1,2,3,4-tetrahydroquinolin-6-yl)-5,6,7,8-tetrahydroisoquinolin-8-yl)propionamide]
[1]; 0.5 mg, normal salt diet
  Plasma ACTH, change from Day 1 to Day 10, predose, mean: -0.15 pmol/L
  Plasma ACTH, percent change from Day 1 to Day 10, predose, mean: −2.01%
[1]; 1.5 mg, normal salt diet
  Plasma ACTH, change from Day 1 to Day 10, predose, mean: -1.63 pmol/L
  Plasma ACTH, percent change from Day 1 to Day 10, predose, mean: −24.00%
[1]; 2.5 mg, low salt diet
  Plasma ACTH, change from Day 1 to Day 10, predose, mean: 2.11 pmol/L
  Plasma ACTH, percent change from Day 1 to Day 10, predose, mean: 184.44%
[1]; 2.5 mg, normal salt diet
  Plasma ACTH, change from Day 1 to Day 10, predose, mean: -4.04 pmol/L
  Plasma ACTH, percent change from Day 1 to Day 10, predose, mean: −35.69%
[1]; 5.0 mg, low salt diet
  Plasma ACTH, change from Day 1 to Day 10, predose, mean: 1.57 pmol/L
  Plasma ACTH, percent change from Day 1 to Day 10, predose, mean: 125.86%
[1]; Day 1, predose, 0.5 mg, normal salt diet
  Predose plasma ACTH, mean: 3.91 pmol/L
[1]; Day 1, predose, 1.5 mg, normal salt diet
  Predose plasma ACTH, mean: 6.30 pmol/L
[1]; Day 1, predose, 2.5 mg, low salt diet
  Predose plasma ACTH, mean: 1.47 pmol/L
[1]; Day 1, predose, 2.5 mg, normal salt diet
  Predose plasma ACTH, mean: 6.40 pmol/L
[1]; Day 1, predose, 5.0 mg, low salt diet
  Predose plasma ACTH, mean: 1.96 pmol/L
[1]; Day 10, predose, 0.5 mg, normal salt diet
  Predose plasma ACTH, mean: 3.76 pmol/L
[1]; Day 10, predose, 1.5 mg, normal salt diet
  Predose plasma ACTH, mean: 4.67 pmol/L
[1]; Day 10, predose, 2.5 mg, low salt diet
  Predose plasma ACTH, mean: 3.59 pmol/L
[1]; Day 10, predose, 2.5 mg, normal salt diet
  Predose plasma ACTH, mean: 2.80 pmol/L
[1]; Day 10, predose, 5.0 mg, low salt diet
  Predose plasma ACTH, mean: 3.52 pmol/L
[1]; low salt diet conditions (Cohorts 1 and 2)
  ACTH increase compared to placebo: somewhat more pronounced
[1]; normal salt diet conditions
  ACTH: apparent dose-dependent decreases
[2]; 0.5 mg NS, N = 9
  Any TEAE, % of subjects: (11.1) %
  Any TEAE, number of subjects: 1
  Related TEAE, % of subjects: (11.1) %
  Related TEAE, number of subjects: 1
[2]; [3]
  Subjects with any AE: 1 (11.1) n (%)
  Subjects with any TEAE: 1 (11.1) n (%)
  Subjects with any TEAE by maximum severity: Mild: 1 (11.1) n (%)
  Subjects with any TEAE by maximum severity: Moderate: 0 (0.0) n (%)
  Subjects with any TEAE by maximum severity: Severe: 0 (0.0) n (%)
  Subjects with any TEAE leading to death: 0 (0.0) n (%)
  Subjects with any TEAE leading to discontinuation: 0 (0.0) n (%)
  Subjects with any study drug-related TEAE: 1 (11.1) n (%)
  Subjects with any study drug-related TEAE by maximum severity: Mild: 1 (11.1) n (%)
  Subjects with any study drug-related TEAE by maximum severity: Moderate: 0 (0.0) n (%)
  Subjects with any study drug-related TEAE by maximum severity: Severe: 0 (0.0) n (%)
  Subjects with any study drug-related TEAE leading to discontinuation: 0 (0.0) n (%)
  Subjects with any study drug-related treatment-emergent SAE: 0 (0.0) n (%)
  Subjects with any treatment-emergent SAE: 0 (0.0) n (%)
[2]; 1.5 mg NS, N = 9
  Any TEAE, % of subjects: (11.1) %
  Any TEAE, number of subjects: 1
  Related TEAE, % of subjects: (0) %
  Related TEAE, number of subjects: 0
[2]; [4]
  Subjects with any AE: 1 (11.1) n (%)
  Subjects with any TEAE: 1 (11.1) n (%)
  Subjects with any TEAE by maximum severity: Mild: 1 (11.1) n (%)
  Subjects with any TEAE by maximum severity: Moderate: 0 (0.0) n (%)
  Subjects with any TEAE by maximum severity: Severe: 0 (0.0) n (%)
  Subjects with any TEAE leading to death: 0 (0.0) n (%)
  Subjects with any TEAE leading to discontinuation: 0 (0.0) n (%)
  Subjects with any study drug-related TEAE: 0 (0.0) n (%)
  Subjects with any study drug-related TEAE by maximum severity: Mild: 0 (0.0) n (%)
  Subjects with any study drug-related TEAE by maximum severity: Moderate: 0 (0.0) n (%)
  Subjects with any study drug-related TEAE by maximum severity: Severe: 0 (0.0) n (%)
  Subjects with any study drug-related TEAE leading to discontinuation: 0 (0.0) n (%)
  Subjects with any study drug-related treatment-emergent SAE: 0 (0.0) n (%)
  Subjects with any treatment-emergent SAE: 0 (0.0) n (%)
[2]; 2.5 mg LS, N = 9
  Any TEAE, % of subjects: (33.3) %
  Any TEAE, number of subjects: 3
  Related TEAE, % of subjects: (22.2) %
  Related TEAE, number of subjects: 2
[2]; 2.5 mg NS, N = 6
  Any TEAE, % of subjects: (50) %
  Any TEAE, number of subjects: 3
  Related TEAE, % of subjects: (33.3) %
  Related TEAE, number of subjects: 2
[2]; 2.5 mg, low salt diet, N = 9
  Subjects with any AE: 3 (33.3) n (%)
  Subjects with any TEAE: 3 (33.3) n (%)
  Subjects with any TEAE by maximum severity: Mild: 3 (33.3) n (%)
  Subjects with any TEAE by maximum severity: Moderate: 0 (0.0) n (%)
  Subjects with any TEAE by maximum severity: Severe: 0 (0.0) n (%)
  Subjects with any TEAE leading to death: 0 (0.0) n (%)
  Subjects with any TEAE leading to discontinuation: 0 (0.0) n (%)
  Subjects with any study drug-related TEAE: 2 (22.2) n (%)
  Subjects with any study drug-related TEAE by maximum severity: Mild: 2 (22.2) n (%)
  Subjects with any study drug-related TEAE by maximum severity: Moderate: 0 (0.0) n (%)
  Subjects with any study drug-related TEAE by maximum severity: Severe: 0 (0.0) n (%)
  Subjects with any study drug-related TEAE leading to discontinuation: 0 (0.0) n (%)
  Subjects with any study drug-related treatment-emergent SAE: 0 (0.0) n (%)
  Subjects with any treatment-emergent SAE: 0 (0.0) n (%)
[2]; [5]
  Subjects with any AE: 3 (50.0) n (%)
  Subjects with any TEAE: 3 (50.0) n (%)
  Subjects with any TEAE by maximum severity: Mild: 3 (50.0) n (%)
  Subjects with any TEAE by maximum severity: Moderate: 0 (0.0) n (%)
  Subjects with any TEAE by maximum severity: Severe: 0 (0.0) n (%)
  Subjects with any TEAE leading to death: 0 (0.0) n (%)
  Subjects with any TEAE leading to discontinuation: 0 (0.0) n (%)
  Subjects with any study drug-related TEAE: 2 (33.3) n (%)
  Subjects with any study drug-related TEAE by maximum severity: Mild: 2 (33.3) n (%)
  Subjects with any study drug-related TEAE by maximum severity: Moderate: 0 (0.0) n (%)
  Subjects with any study drug-related TEAE by maximum severity: Severe: 0 (0.0) n (%)
  Subjects with any study drug-related TEAE leading to discontinuation: 0 (0.0) n (%)
  Subjects with any study drug-related treatment-emergent SAE: 0 (0.0) n (%)
  Subjects with any treatment-emergent SAE: 0 (0.0) n (%)
[2]; 5 mg LS, N = 9
  Any TEAE, % of subjects: (33.3) %
  Any TEAE, number of subjects: 3
  Related TEAE, % of subjects: (11.1) %
  Related TEAE, number of subjects: 1
[2]; 5.0 mg, low salt diet, N = 9
  Subjects with any AE: 3 (33.3) n (%)
  Subjects with any TEAE: 3 (33.3) n (%)
  Subjects with any TEAE by maximum severity: Mild: 3 (33.3) n (%)
  Subjects with any TEAE by maximum severity: Moderate: 0 (0.0) n (%)
  Subjects with any TEAE by maximum severity: Severe: 0 (0.0) n (%)
  Subjects with any TEAE leading to death: 0 (0.0) n (%)
  Subjects with any TEAE leading to discontinuation: 0 (0.0) n (%)
  Subjects with any study drug-related TEAE: 1 (11.1) n (%)
  Subjects with any study drug-related TEAE by maximum severity: Mild: 1 (11.1) n (%)
  Subjects with any study drug-related TEAE by maximum severity: Moderate: 0 (0.0) n (%)
  Subjects with any study drug-related TEAE by maximum severity: Severe: 0 (0.0) n (%)
  Subjects with any study drug-related TEAE leading to discontinuation: 0 (0.0) n (%)
  Subjects with any study drug-related treatment-emergent SAE: 0 (0.0) n (%)
  Subjects with any treatment-emergent SAE: 0 (0.0) n (%)
[2]; Overall (R)-compound 1, N = 42
  Subjects with any AE: 11 (26.2) n (%)
  Subjects with any TEAE: 11 (26.2) n (%)
  Subjects with any TEAE by maximum severity: Mild: 11 (26.2) n (%)
  Subjects with any TEAE by maximum severity: Moderate: 0 (0.0) n (%)
  Subjects with any TEAE by maximum severity: Severe: 0 (0.0) n (%)
  Subjects with any TEAE leading to death: 0 (0.0) n (%)
  Subjects with any TEAE leading to discontinuation: 0 (0.0) n (%)
  Subjects with any study drug-related TEAE: 6 (14.3) n (%)
  Subjects with any study drug-related TEAE by maximum severity: Mild: 6 (14.3) n (%)
  Subjects with any study drug-related TEAE by maximum severity: Moderate: 0 (0.0) n (%)
  Subjects with any study drug-related TEAE by maximum severity: Severe: 0 (0.0) n (%)
  Subjects with any study drug-related TEAE leading to discontinuation: 0 (0.0) n (%)
  Subjects with any study drug-related treatment-emergent SAE: 0 (0.0) n (%)
  Subjects with any treatment-emergent SAE: 0 (0.0) n (%)
[2]; Total (R)-Compound 1, N = 42
  Any TEAE, % of subjects: (26.2) %
  Any TEAE, number of subjects: 11
  Related TEAE, % of subjects: (14.3) %
  Related TEAE, number of subjects: 6
[2]; [6]
  decrease in mean BW from baseline: ≤ 2 kg
  decrease in mean body mass index from baseline: < 0.65 kg/m^2
[2]; [7]
  subjects experiencing a TEAE: 11 (26.2%)
  subjects experiencing a TEAE considered related to study drug: 6 (14.3%)
  subjects experiencing dizziness: 2 (4.8%)
  subjects experiencing headache: 4 (9.5%)
  subjects experiencing postural dizziness: 3 (7.1%)
[2]; healthy subjects
  BP as compared to placebo: no clinically significant changes
  tolerability: safe and well tolerated
[2]; human, in vivo, oral, 10 days
  all other TEAEs (presyncope, eye irritation, abdominal pain, constipation, viral infection, rhinitis, back pain, anxiety, dry throat, dysphonia), subjects each: 1 subject
[2]; mild
  reduction in glomerular filtration rate: < 15%
[2]; multiple doses
  plasma sodium and potassium levels: Mild, dose-dependent decreases in plasma sodium levels and increases in plasma potassium levels
[2]; healthy subjects, listed as (R)-compound 1
  tolerability: safe and well tolerated
[2]; overall (R)-compound 1 group
  decrease in mean BMI from baseline: −0.442 kg/m^2
  decrease in mean body weight from baseline: -1.31 kg
[2]; up to 5 mg QD for 10 days
  QTcF: no meaningful changes
